This note sets out measurements from patent US11213495B2, “Method and composition for decreasing the psychotomimetic side effect and addictive disorder of ketamine” (NATIONAL HEALTH RESEARCH INSTITUTES, priority 2016, dated 2022).

The structures appear in SMILES notation. “Also recorded” adds a separate entry of the source.

Common to all, as to assay type: in vivo
The subject of data set [1] is Male ICR mice. Put plainly: Prepulse inhibition test (PPI) of acoustic startle. Particulars: for PPI: ketamine 30 mg/kg alone. Here is the method: The PPI was operated as described in our previous work (Chan et al., 2012a). Briefly, the animals were initially moved from the home cage, weighed, and then placed into the restrainers in the SR-LAB (San Diego Instruments, San Diego, Calif., USA) acoustic startle chambers for 30-min habituation. The test drug (0, 30 and 100 mg/kg) was administered 30 min prior to ketamine (30 mg/kg) or saline injection. After administration of ketamine or saline, the experiment started with a 5-min adaptation period during which the animals were exposed to 67-dB background white noise, and this background noise was continued throughout the session. Then, the following adaptation period startle session began with five initial startle stimuli (120 dB bursts of white noise, 40 ms duration). After the first five initial stimuli, mice received five different trial types: pulse alone trials (120 dB bursts of white noise, 40 ms duration), three prepulse and pulse trials in which 76, 81, or 86 dB white noise bursts (9, 14, and 19 dB above background) of 20 ms duration preceded 120 dB pulse by 100 ms prepulse onset to pulse onset, and no-stimuli trials during which only background noise was applied. Each of these trial types was presented five times in randomized order. The inter trial interval was 7-23 s, and the test lasted 15 min in total. Prepulse inhibition was calculated as the percent inhibition of the startle amplitude evoked by the pulse alone: % PPI=(magnitude on pulse alone trial−magnitude on prepulse+pulse trial/magnitude on pulse alone trial)×100.

The next data set deals with Male Sprague-Dawley rats. Put plainly: Ketamine intravenous self-administration (IVSA) under progressive ratio (PR) schedule. Here is the method: The dose-dependent effects of betaine and its metabolite DMG on ketamine addiction were evaluated by the intravenous self-administration (IVSA) paradigm under a progressive ratio (PR) schedule. Animals were implanted indwelling catheters flushing of ketamine (0.5 mg/kg/per infusion), termed the training dose, under a FR1 schedule during daily 3-h sessions. After acquisition of stable responding for ketamine (criterion of less than 20% deviation from the mean of the total number of reinforcers earned in three consecutive sessions for each rat), the ketamine reinforcement schedule was changed to FR2 and maintained until responding stabilized at least for 3 days. Then, the PR schedule was conducted. The lever presses required to gain an infusion was determined by: 5×e^(infusion number×0.2)−5 (i.e., 1, 2, 4, 6, 9, […], 15, 20, 25, 32, etc). […] The dose-dependent effects of betaine of self-administration of various doses of ketamine ([…]) were assessed by pretreatment 30 min prior to their daily operant session using a within-subject Latin square design.

Data set [2] concerns Male ICR mice. Put plainly: Loss of righting reflex (LORR). Here is the method:
The test drug betaine (0, 300, and 600 mg/kg) or DMG (0, 100 and 300 mg/kg) was administered 30 min prior to the anesthetic doses of ketamine (100 mg/kg). Then, the mice were placed in a clean cage until the righting reflex was lost. They were then placed in the supine position until recovery and the onset and duration of the loss of righting reflex was recorded. Recovery of the righting reflex was defined as the ability to perform three successive rightings.

Data set [3] deals with Male ICR mice. Put plainly: Forced swim test (FST): duration of immobility, struggling and swimming. Here is the method:
FST was conducted for two consecutive days. Mice were placed in a Plexiglas cylinder (33.5 cm height, 20 cm diameter) filled with 25±2° C. water to a height of 18-20 cm. For the first exposure, mice were placed in the water for 15 min (pre-test session) followed by […]. Twenty-four hours later (day 1 test session), various doses of test drug (at 0, 30 and 100 mg/kg) was administered 30 min prior to the ketamine (10 mg/kg) or saline. Then, the mice were tested 30 min after ketamine injection which placed in the water again for a 6 min session (test session), the first 2 minutes has elapsed. Immobility was assigned when no additional activity was observed other than that required to keep the head above the water.
This experiment included a control group and various doses of ketamine (3, 10, 15 mg/kg), betaine (10, 20, 30 mg/kg) and betaine (10, 20, 30 mg/kg) pretreatment prior to ketamine (fixed dose at 10 mg/kg). […] There was no significant effect of test session or interaction.

Data set [4] concerns Male ICR mice. The description is as above. Particulars: for duration of struggling in FST: betaine 20 mg/kg prior to ketamine 10 mg/kg.
Where [5] appears, read: ketamine 15 mg/kg, day 7 retest session, vs control.
[6] abbreviates: betaine 300 and 600 mg/kg 30 min prior to ketamine 100 mg/kg.
Where [7] appears, read: betaine 30 mg/kg pretreatment prior to ketamine 10 mg/kg, day 1 test session.
The mark [8] stands for this setting: betaine 20 and 30 mg/kg, over both sessions.

On to `CNC1(c2ccccc2Cl)CCCCC1=O` (racemic) [ketamine], for which the PPI entry in the data set on Male ICR mice [1] was “reduced”; in the data set on Male ICR mice [1] (listed as Ketamine), “significantly reduced”. The “ketamine consumption over the dose-response curve” value in the data set on Male Sprague-Dawley rats (ketamine 0.1-0.5 mg/kg/infusion, control (vehicle-treated) animals) is listed as “increase”. The “loss of righting reflex” value with Male ICR mice [2] (ketamine 100 mg/kg i.p. (anesthetic dose)) is “produced a loss of righting reflex; also recorded: produced LORR”. Also, the “duration of immobility in FST” value in the data set with Male ICR mice [3] (ketamine 10 mg/kg, DMG experiment, tested 30 min after ketamine) is “significantly decreased”; with Male ICR mice [3] (ketamine 15 mg/kg, day 7 retest session, vs vehicle control) it was “significantly decreased”; in the data set with Male ICR mice [3] (ketamine 3, 10 and 15 mg/kg, day 1 test session, vs vehicle control) it was “significantly reduced”; in the data set on Male ICR mice [3] (ketamine 10 and 15 mg/kg, main effect over both sessions), “significantly decreased”. Besides, the “duration of struggling in FST” value with Male ICR mice [3] (ketamine 15 mg/kg, day 1 test session, vs control) is recorded as “significantly increased”; in the data set on Male ICR mice [3] (setting [5]) it was “significantly increased”; in the data set with Male ICR mice [3] (ketamine 15 mg/kg, over both sessions), “significantly increased”. Besides, the “duration of swimming in FST” value with Male ICR mice [3] (setting [5]) was “significantly increased”; with Male ICR mice [3] (ketamine 10 and 15 mg/kg, day 1 test session, vs control) it was “significantly increased”; in the data set on Male ICR mice [3] (ketamine 10 and 15 mg/kg, over both sessions), “significantly increased”.

For the compound `C[N+](C)(C)CC(=O)O` [betaine], the “ketamine-induced disruption of PPI” value with Male ICR mice [1] (betaine 100 mg/kg pretreatment, ketamine 30 mg/kg) was “significantly attenuated”. The “reduction of PPI” value in the data set on Male ICR mice [1] (betaine prior to saline) is “did not”. Moreover, the “reduction of ketamine IVSA” value with Male Sprague-Dawley rats (betaine 100 mg/kg pretreatment, PR schedule) is reported as 3-5 times. Also, in the data set with Male Sprague-Dawley rats (betaine pretreatment (30 and 100 mg/kg), ketamine 0.1-0.5 mg/kg/infusion, PR schedule), the IVSA of ketamine result is listed as “dose-dependently reduced”. In addition, in the data set with Male Sprague-Dawley rats (betaine pretreatment, PR schedule), the “significant effective dose for reduction of ketamine IVSA” value was found to be 30 mg/kg. For the same compound, in the data set with Male ICR mice [2] (setting [6]), the “duration of ketamine-induced loss of righting reflex” value is given as “did not affect”. The “onset of ketamine-induced loss of righting reflex” value in the data set on Male ICR mice [2] (setting [6]) is recorded as “did not affect”. Besides, the “duration of immobility in FST compared with ketamine (10 mg/kg) alone” value was “significantly shorter duration of immobility” in the data set with Male ICR mice [3] (setting [7]) and “significantly shorter duration of immobility” in the data set on Male ICR mice [3] (betaine 30 mg/kg pretreatment prior to ketamine 10 mg/kg, over both sessions). The “duration of swimming in FST compared with ketamine (10 mg/kg)” value in the data set with Male ICR mice [3] (setting [7]) is listed as “longer duration of swimming”. The “duration of struggling in FST” value is “significantly increased” in the data set with Male ICR mice [3] (betaine 30 mg/kg, day 7 retest session, vs control); “significantly increased” with Male ICR mice [3] (setting [8]); “significantly increased” with Male ICR mice [4] (day 1 test session, vs control); “significantly increased” in the data set with Male ICR mice [4] (over both sessions). Moreover, the “duration of immobility in FST” value was “significantly decreased” with Male ICR mice [3] (betaine 10, 20 and 30 mg/kg pretreatment prior to ketamine 10 mg/kg, day 7 retest session, vs vehicle control); “significantly decreased” in the data set on Male ICR mice [3] (betaine 10, 20 and 30 mg/kg pretreatment prior to ketamine 10 mg/kg, main effect over both sessions); “significantly reduced” with Male ICR mice [3] (betaine 10, 20 and 30 mg/kg prior to ketamine 10 mg/kg, day 1 test session, vs vehicle control); “significantly reduced” in the data set with Male ICR mice [3] (betaine 20 and 30 mg/kg, day 1 test session, vs vehicle control); “significantly decreased” with Male ICR mice [3] (betaine 20 and 30 mg/kg, day 7 retest session, vs vehicle control); “significantly decreased” with Male ICR mice [3] (betaine 20 and 30 mg/kg, main effect over both sessions). Further, the “duration of swimming in FST” value in the data set on Male ICR mice [3] (betaine 10, 20 and 30 mg/kg prior to ketamine 10 mg/kg, day 7 retest session, vs control) is given as “significantly increased”; in the data set on Male ICR mice [3] (betaine 20 and 30 mg/kg, day 1 test session, vs control) it was “significantly increased”; in the data set on Male ICR mice [4] (betaine 10, 20 and 30 mg/kg pretreatment prior to ketamine 10 mg/kg, day 1 test session, vs control) it was “significantly increased”; in the data set with Male ICR mice [4] (betaine 10, 20 and 30 mg/kg pretreatment prior to ketamine 10 mg/kg, over both sessions), “significantly increased”; in the data set with Male ICR mice [4] (setting [8]) it was “significantly increased”.
